According to patent US11945822B2, “Pyrazolo-triazine and/or pyrazolo-pxrimidine derivatives as selective inhibitor of cyclin dependent kinase” (QURIENT CO., LTD., priority 2018, dated 2024):

Molecular target: T1, CDK2/Cyclin A (Homo sapiens, UniProt P24941)
T1 construct: purchased Invitrogen PV6290
Assay: Enzymatic assay for CDK2 (FRET based LANCE Ultra kinase assay)
Format: biochemical
Settings: read-out: CDK2 enzymatic activity (IC50 range)
Procedure, shortened: (§1)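 TR-FRET (LANCE Ultra) kinase assay at ATP Km, ULight-MBP peptide substrate (68 nM), 8-dose 4-fold compound series in DMSO. Enzymes: […]; 60 min at 23° C., stopped with EDTA plus Eu-anti-phospho-MBP antibody, read 665/615 nm after 60 min.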

Row | IC50 [nM] | SMILES
1 | 100 to 1000 | CCCc1ccc2nn(-c3ccccc3CNc3nc(N4CCC(N)CC4)nc4c(C(C)C)cnn34)cc2c1 [Compound 106]
2 | > 1000 | CC(C)c1cnn2c(NCc3ccccc3Oc3ccccc3)nc(N3CCC(N)CC3)nc12 [Compound 56]
3 | > 1000 | CC(C)c1cnn2c(NCc3ccccc3N3CCc4ccccc43)nc(N3CCC(N)CC3)nc12 [Compound 76]
4 | > 1000 | CC(C)c1cnn2c(NCc3cccc4ccc(C5CC5)nc34)nc(N3CCC(N)CC3)nc12 [Compound 71]

Test system: MV4-11
Assay: Cellular MV4-11 viability assay (CellTiter-Glo, 72 hours)
Format: cell-based
Settings: Homo sapiens
Procedure, shortened: (§2)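 CellTiter-Glo luminescence read in duplicate after 72 h compound exposure (37 °C, 5% CO2); DMSO-only control, final DMSO under 0.1%.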

Row | IC50 [nM] | SMILES
5 | < 1000 | CCCc1ccc2nn(-c3ccccc3CNc3nc(N4CCC(N)CC4)nc4c(C(C)C)cnn34)cc2c1 [Compound 106]
6 | 1000 to 10000 | CC(C)c1cnn2c(NCc3cccc4ccc(C5CC5)nc34)nc(N3CCC(N)CC3)nc12 [Compound 71]

Test system: RPMI-8226
Assay: Cellular RPMI-8226 viability assay (CellTiter-Glo, 72 hours)
Format: cell-based
Settings: Homo sapiens
Procedure, shortened: as §2

Row | IC50 [nM] | SMILES
7 | < 1000 | CCCc1ccc2nn(-c3ccccc3CNc3nc(N4CCC(N)CC4)nc4c(C(C)C)cnn34)cc2c1 [Compound 106]
8 | 1000 to 10000 | CC(C)c1cnn2c(NCc3ccccc3Oc3ccccc3)nc(N3CCC(N)CC3)nc12 [Compound 56]
9 | < 1000 | CC(C)c1cnn2c(NCc3ccccc3N3CCc4ccccc43)nc(N3CCC(N)CC3)nc12 [Compound 76]
10 | 1000 to 10000 | CC(C)c1cnn2c(NCc3cccc4ccc(C5CC5)nc34)nc(N3CCC(N)CC3)nc12 [Compound 71]

Test system: MOLT-4
Assay: Cellular MOLT-4 viability assay (CellTiter-Glo, 72 hours)
Format: cell-based
Settings: Homo sapiens, MOLT4 viability assay
Procedure, shortened: as §2

Row | IC50 [nM] | SMILES
11 | 1000 to 10000 | CCCc1ccc2nn(-c3ccccc3CNc3nc(N4CCC(N)CC4)nc4c(C(C)C)cnn34)cc2c1 [Compound 106]
12 | 1000 to 10000 | CC(C)c1cnn2c(NCc3ccccc3Oc3ccccc3)nc(N3CCC(N)CC3)nc12 [Compound 56]
13 | 1000 to 10000 | CC(C)c1cnn2c(NCc3ccccc3N3CCc4ccccc43)nc(N3CCC(N)CC3)nc12 [Compound 76]
14 | 1000 to 10000 | CC(C)c1cnn2c(NCc3cccc4ccc(C5CC5)nc34)nc(N3CCC(N)CC3)nc12 [Compound 71]

Molecular target: T2, CDK1/Cyclin B (Homo sapiens, UniProt P06493)
T2 construct: purchased Invitrogen PR4768C
T2 sequence (P06493 whole entry): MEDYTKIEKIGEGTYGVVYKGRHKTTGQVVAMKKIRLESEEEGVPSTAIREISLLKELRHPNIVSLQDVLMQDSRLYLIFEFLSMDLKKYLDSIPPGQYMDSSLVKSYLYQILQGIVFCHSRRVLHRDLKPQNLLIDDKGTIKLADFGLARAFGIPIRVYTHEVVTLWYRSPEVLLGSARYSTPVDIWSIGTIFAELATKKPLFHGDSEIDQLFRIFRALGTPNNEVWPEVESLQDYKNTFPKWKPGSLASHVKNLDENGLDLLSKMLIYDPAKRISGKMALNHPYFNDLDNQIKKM
T2 sequence (P14635 whole entry partner): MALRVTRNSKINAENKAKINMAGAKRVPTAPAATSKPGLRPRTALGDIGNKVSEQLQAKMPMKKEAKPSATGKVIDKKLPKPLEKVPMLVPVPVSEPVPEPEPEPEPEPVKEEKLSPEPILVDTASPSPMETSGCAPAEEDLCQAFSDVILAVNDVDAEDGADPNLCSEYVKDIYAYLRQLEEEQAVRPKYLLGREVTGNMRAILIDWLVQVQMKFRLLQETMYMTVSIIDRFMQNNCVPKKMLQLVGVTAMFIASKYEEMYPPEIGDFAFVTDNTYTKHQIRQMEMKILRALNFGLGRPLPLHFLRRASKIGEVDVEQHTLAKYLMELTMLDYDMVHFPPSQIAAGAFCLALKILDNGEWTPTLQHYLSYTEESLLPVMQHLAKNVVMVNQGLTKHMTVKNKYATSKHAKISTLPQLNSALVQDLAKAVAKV
Assay: Enzymatic assay for CDK1 (FRET based LANCE Ultra kinase assay)
Format: biochemical
Settings: read-out: CDK1 enzymatic activity (IC50 range)
Procedure, shortened: as §1

Row | IC50 [nM] | SMILES
15 | > 1000 | CCCc1ccc2nn(-c3ccccc3CNc3nc(N4CCC(N)CC4)nc4c(C(C)C)cnn34)cc2c1 [Compound 106]
16 | > 1000 | CC(C)c1cnn2c(NCc3ccccc3Oc3ccccc3)nc(N3CCC(N)CC3)nc12 [Compound 56]
17 | > 1000 | CC(C)c1cnn2c(NCc3ccccc3N3CCc4ccccc43)nc(N3CCC(N)CC3)nc12 [Compound 76]
18 | > 1000 | CC(C)c1cnn2c(NCc3cccc4ccc(C5CC5)nc34)nc(N3CCC(N)CC3)nc12 [Compound 71]

Molecular target: T3, CDK5/p25 (Homo sapiens, UniProt Q00535)
T3 construct: purchased Invitrogen PR8543B
T3 sequence (Q00535 whole entry): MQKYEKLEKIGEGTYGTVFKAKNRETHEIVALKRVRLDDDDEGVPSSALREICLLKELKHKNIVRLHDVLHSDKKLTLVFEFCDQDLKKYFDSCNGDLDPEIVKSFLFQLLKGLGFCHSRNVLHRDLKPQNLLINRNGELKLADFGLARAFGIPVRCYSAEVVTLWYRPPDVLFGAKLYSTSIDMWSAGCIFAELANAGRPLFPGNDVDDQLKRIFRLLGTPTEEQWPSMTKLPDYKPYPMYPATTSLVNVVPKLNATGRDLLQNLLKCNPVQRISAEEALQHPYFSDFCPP
T3 sequence (Q15078 99-307 partner limits assumed): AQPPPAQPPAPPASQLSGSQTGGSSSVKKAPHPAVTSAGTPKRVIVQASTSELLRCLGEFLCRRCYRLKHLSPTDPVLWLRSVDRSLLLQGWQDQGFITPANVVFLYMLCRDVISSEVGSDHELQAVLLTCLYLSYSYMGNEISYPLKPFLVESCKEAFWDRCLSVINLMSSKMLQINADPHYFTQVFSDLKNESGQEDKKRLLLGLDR
Assay: Enzymatic assay for CDK5 (FRET based LANCE Ultra kinase assay)
Format: biochemical
Settings: read-out: CDK5 enzymatic activity (IC50 range)
Procedure, shortened: as §1

Row | IC50 [nM] | SMILES
19 | 100 to 1000 | CCCc1ccc2nn(-c3ccccc3CNc3nc(N4CCC(N)CC4)nc4c(C(C)C)cnn34)cc2c1 [Compound 106]
20 | 100 to 1000 | CC(C)c1cnn2c(NCc3ccccc3Oc3ccccc3)nc(N3CCC(N)CC3)nc12 [Compound 56]
21 | 100 to 1000 | CC(C)c1cnn2c(NCc3ccccc3N3CCc4ccccc43)nc(N3CCC(N)CC3)nc12 [Compound 76]
22 | 100 to 1000 | CC(C)c1cnn2c(NCc3cccc4ccc(C5CC5)nc34)nc(N3CCC(N)CC3)nc12 [Compound 71]

Test system: H460
Assay: Cellular H460 viability assay (CellTiter-Glo, 72 hours)
Format: cell-based
Settings: Homo sapiens, NCI-H460
Procedure, shortened: as §2

Row | IC50 [nM] | SMILES
23 | < 1000 | CCCc1ccc2nn(-c3ccccc3CNc3nc(N4CCC(N)CC4)nc4c(C(C)C)cnn34)cc2c1 [Compound 106]
24 | < 1000 | CC(C)c1cnn2c(NCc3ccccc3Oc3ccccc3)nc(N3CCC(N)CC3)nc12 [Compound 56]
25 | < 1000 | CC(C)c1cnn2c(NCc3ccccc3N3CCc4ccccc43)nc(N3CCC(N)CC3)nc12 [Compound 76]
26 | 1000 to 10000 | CC(C)c1cnn2c(NCc3cccc4ccc(C5CC5)nc34)nc(N3CCC(N)CC3)nc12 [Compound 71]

Molecular target: T4, CDK7/Cyclin H/MNAT1 (Homo sapiens, UniProt P50613)
T4 construct: purchased Invitrogen PR6749B
T4 sequence (P50613 whole entry): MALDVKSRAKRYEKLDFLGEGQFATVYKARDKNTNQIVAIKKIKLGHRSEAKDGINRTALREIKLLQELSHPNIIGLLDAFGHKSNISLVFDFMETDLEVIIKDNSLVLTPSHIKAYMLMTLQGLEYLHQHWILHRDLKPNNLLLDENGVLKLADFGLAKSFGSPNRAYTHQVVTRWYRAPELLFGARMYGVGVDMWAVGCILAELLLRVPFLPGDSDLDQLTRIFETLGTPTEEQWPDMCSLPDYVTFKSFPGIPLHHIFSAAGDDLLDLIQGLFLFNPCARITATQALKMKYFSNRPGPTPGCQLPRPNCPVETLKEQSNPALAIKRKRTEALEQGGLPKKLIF
T4 sequence (P51946 whole entry partner): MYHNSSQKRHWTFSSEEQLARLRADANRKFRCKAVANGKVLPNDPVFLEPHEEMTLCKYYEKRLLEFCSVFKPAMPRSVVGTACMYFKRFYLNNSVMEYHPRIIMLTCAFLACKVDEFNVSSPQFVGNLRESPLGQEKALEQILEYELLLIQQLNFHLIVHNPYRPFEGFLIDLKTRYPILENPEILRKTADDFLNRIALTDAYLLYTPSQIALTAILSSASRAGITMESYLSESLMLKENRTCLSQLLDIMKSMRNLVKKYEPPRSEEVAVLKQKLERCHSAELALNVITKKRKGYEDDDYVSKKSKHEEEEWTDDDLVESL
T4 sequence (P51948 whole entry partner): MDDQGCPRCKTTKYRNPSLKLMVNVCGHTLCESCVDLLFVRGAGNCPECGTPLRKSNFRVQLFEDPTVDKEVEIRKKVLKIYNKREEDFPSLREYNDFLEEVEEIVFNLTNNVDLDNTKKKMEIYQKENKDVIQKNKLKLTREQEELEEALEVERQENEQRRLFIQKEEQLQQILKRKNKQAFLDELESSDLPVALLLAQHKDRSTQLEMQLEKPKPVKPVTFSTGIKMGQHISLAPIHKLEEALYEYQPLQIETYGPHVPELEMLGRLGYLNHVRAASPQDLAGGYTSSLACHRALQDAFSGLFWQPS
Assay: Enzymatic assay for CDK7 (FRET based LANCE Ultra kinase assay)
Format: biochemical
Settings: CDK7 over CDK1
Procedure, shortened: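 Inhibition was measured at Km ATP by time-resolved FRET between a Eu anti-phospho antibody and a phosphorylated ULight peptide. The enzyme was the purified CDK7/cyclin complex, and data were curve-fitted.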

Row | SMILES | CDK1/CDK7: Selectivity of CDK7 inhibition over CDK1 inhibition
27 | CCCc1ccc2nn(-c3ccccc3CNc3nc(N4CCC(N)CC4)nc4c(C(C)C)cnn34)cc2c1 [Compound 106] | A (A=greater than 200 fold)
28 | CC(C)c1cnn2c(NCc3ccccc3Oc3ccccc3)nc(N3CCC(N)CC3)nc12 [Compound 56] | B (B=less than 200 fold, but greater than 20 fold)
29 | CC(C)c1cnn2c(NCc3ccccc3N3CCc4ccccc43)nc(N3CCC(N)CC3)nc12 [Compound 76] | A (A=greater than 200 fold)
30 | CC(C)c1cnn2c(NCc3cccc4ccc(C5CC5)nc34)nc(N3CCC(N)CC3)nc12 [Compound 71] | B (B=less than 200 fold, but greater than 20 fold)

Same assay, conditions: CDK7 over CDK2

Row | SMILES | CDK2/CDK7: Selectivity of CDK7 inhibition over CDK2 inhibition
31 | CCCc1ccc2nn(-c3ccccc3CNc3nc(N4CCC(N)CC4)nc4c(C(C)C)cnn34)cc2c1 [Compound 106] | B (B=less than 200 fold, but greater than 20 fold)
32 | CC(C)c1cnn2c(NCc3ccccc3Oc3ccccc3)nc(N3CCC(N)CC3)nc12 [Compound 56] | B (B=less than 200 fold, but greater than 20 fold)
33 | CC(C)c1cnn2c(NCc3ccccc3N3CCc4ccccc43)nc(N3CCC(N)CC3)nc12 [Compound 76] | B (B=less than 200 fold, but greater than 20 fold)
34 | CC(C)c1cnn2c(NCc3cccc4ccc(C5CC5)nc34)nc(N3CCC(N)CC3)nc12 [Compound 71] | B (B=less than 200 fold, but greater than 20 fold)

Same assay, conditions: CDK7 over CDK5

Row | SMILES | CDK5/CDK7: Selectivity of CDK7 inhibition over CDK5 inhibition
35 | CCCc1ccc2nn(-c3ccccc3CNc3nc(N4CCC(N)CC4)nc4c(C(C)C)cnn34)cc2c1 [Compound 106] | B (B=less than 200 fold, but greater than 20 fold)
36 | CC(C)c1cnn2c(NCc3ccccc3Oc3ccccc3)nc(N3CCC(N)CC3)nc12 [Compound 56] | C (C=less than 20 fold)
37 | CC(C)c1cnn2c(NCc3ccccc3N3CCc4ccccc43)nc(N3CCC(N)CC3)nc12 [Compound 76] | B (B=less than 200 fold, but greater than 20 fold)
38 | CC(C)c1cnn2c(NCc3cccc4ccc(C5CC5)nc34)nc(N3CCC(N)CC3)nc12 [Compound 71] | B (B=less than 200 fold, but greater than 20 fold)

Same assay, conditions: read-out: CDK7 enzymatic activity (IC50 range)

Row | IC50 [nM] | SMILES
39 | < 100 | CCCc1ccc2nn(-c3ccccc3CNc3nc(N4CCC(N)CC4)nc4c(C(C)C)cnn34)cc2c1 [Compound 106]
40 | < 100 | CC(C)c1cnn2c(NCc3ccccc3Oc3ccccc3)nc(N3CCC(N)CC3)nc12 [Compound 56]
41 | < 100 | CC(C)c1cnn2c(NCc3ccccc3N3CCc4ccccc43)nc(N3CCC(N)CC3)nc12 [Compound 76]
42 | < 100 | CC(C)c1cnn2c(NCc3cccc4ccc(C5CC5)nc34)nc(N3CCC(N)CC3)nc12 [Compound 71]
